{
  "source": "patent US10342812B2",
  "about": "“Glycan-based drugs, therapies and biomarkers” (priority 2008, dated 2019)",
  "key": {"[1]": {"test_system": "2009H1N1 influenza virus (California strain)", "format": "in vivo, chicken"}, "rhesus rotavirus (RRV) [2]": {"test_system": "rhesus rotavirus (RRV)", "experiment": "Prevention of rotavirus infection in mouse pups with Neu5Ac, methionine, formula-1 (5.7)", "format": "in vivo", "details": "for Not sick (number) / Sick Rate(%): 20 μl oral at P1, RRV at P2; for Sick (number): 20 μl oral at P1, RRV at P2, 3 weeks; for Odds Ratio: vs saline"}, "[3]": {"format": "in vivo, chicken"}, "[4]": {"test_system": "A/PR/8/34(H1N1) influenza virus strain", "experiment": "Treatment of influenza infection of newborn mice (15.2)", "format": "in vivo, mouse", "details": "virus at P5, i.p. treatment at day 2, 3, 4 and 5; kept 10 days", "method": "Four groups of newborn bulb/c pups were inoculated at day 5 (P5) via nasal and oral administration of 20 μl (microliter) of the A/PR/8/34(H1N1) influenza virus strain (titer: 1:256, diluted 200 times with saline); and were treated at day 2, 3, 4 and 5 via intraperitoneal injection with 100 μl of saline containing 1) saline alone (n=10); 2) 150 microgram of Neu5AcMe; 3) 30 μl of 2% diethyl disulfide plus 200 μg of the Neu5AcMe (n=10); and 4) 30 μl of 2% diethyl disulfide plus 200 μg of the Neu5Ac (n=10). Mice were kept for 10 days after treatment."}, "rhesus rotavirus (RRV) [5]": {"test_system": "rhesus rotavirus (RRV)", "experiment": "Prevention of rotavirus infection in mouse pups with methionine-Zn (8.1)", "format": "in vivo"}, "[6]": {"details": "pretreated at E16, virus next day"}},
  "data": [
    {"compound": "CCSSCC", "note": "[Diethyl disulfide]", "values": [
      {"measurement": "Not sick (number)", "setting": "[1]; [6]", "value": 5},
      {"measurement": "Sick (number)", "setting": "[1]; [6]", "value": 1},
      {"measurement": "Sick Rate(%)", "setting": "[1]; [6]", "value": 17, "unit": "%"},
      {"measurement": "Odds Ratio", "setting": "[1]; vs saline", "value": 0.04}
    ]},
    {"compound": "CSCC[C@H](N)C(=O)O", "note": "[Metnionine, Methionine]", "values": [
      {"measurement": "Not sick (number)", "setting": "rhesus rotavirus (RRV) [2]", "value": 9},
      {"measurement": "Sick Rate(%)", "setting": "rhesus rotavirus (RRV) [2]", "value": 25.0, "unit": "%"},
      {"measurement": "Sick (number)", "setting": "rhesus rotavirus (RRV) [2]", "value": 3},
      {"measurement": "Odds Ratio", "setting": "rhesus rotavirus (RRV) [2]", "value": 0.07}
    ]},
    {"compound": "CC(=O)N[C@H]1[C@H]([C@H](O)[C@H](O)CO)OC(O)(C(=O)O)C[C@@H]1O", "note": "(some centres unmarked) [Neu5Ac, N-Acetylneuraminic acid]", "values": [
      {"measurement": "side effect of the H5N1 vaccine candidate (still sick)", "setting": "[3]; day 3, saline 87.5%", "value": 12.5, "unit": "%"},
      {"measurement": "Odd Ratio", "setting": "[3]; in vivo", "value": 0.02},
      {"measurement": "sick chickens recovered and looked normal", "setting": "[3]; in vivo, po", "value": "7/8"},
      {"measurement": "Not sick (number)", "setting": "rhesus rotavirus (RRV) [2]", "value": 10},
      {"measurement": "Sick Rate(%)", "setting": "rhesus rotavirus (RRV) [2]", "value": 23.1, "unit": "%"},
      {"measurement": "Sick (number)", "setting": "rhesus rotavirus (RRV) [2]", "value": 3},
      {"measurement": "Odds Ratio", "setting": "rhesus rotavirus (RRV) [2]", "value": 0.07}
    ]},
    {"compound": "COC(=O)[C@]1(O)CC(O)[C@@H](NC(C)=O)C(C(O)[C@H](O)CO)O1", "note": "(some centres unmarked) [Neu5AcMe, N-Acetylneuraminic acid methyl ester]", "values": [
      {"measurement": "pups survived", "setting": "[4]", "value": 50, "unit": "%"}
    ]},
    {"compound": "Methionine-Zinc (Zn) complex [Metnionine-Zn]", "values": [
      {"measurement": "Not sick (number)", "setting": "rhesus rotavirus (RRV) [5]; 20 μl oral at P1, RRV at P2", "value": 6},
      {"measurement": "Sick Rate(%)", "setting": "rhesus rotavirus (RRV) [5]; 20 μl oral at P1, RRV at P2", "value": 14, "unit": "%"},
      {"measurement": "Sick (number)", "setting": "rhesus rotavirus (RRV) [5]; 20 μl oral at P1, RRV at P2, 3 weeks", "value": 1},
      {"measurement": "Odds Ratio", "setting": "rhesus rotavirus (RRV) [5]; vs saline", "value": 0.03}
    ]}
  ]
}
